Experimental data as given in patent US10208040B2, “Fused imidazo-piperidine JAK inhibitors” (THERAVANCE BIOPHARMA R&D IP, LLC, priority 2017, dated 2019).

Tests used:
[1] = system: IL-6 stimulated STAT3 phosphorylation in CD3+ T cells; assay: Inhibition of IL-6 stimulated pSTAT3 in CD3+ T cells; assay type: cell-based, human; conditions: for IC50: T-cell, CD3+ T cells in human PBMCs, read-out: pIC50 inhibition of IL-6 stimulated pSTAT3 (converted)
From the text: A protocol analogous to that of Assay 9 was used to determine the potency of the test compound for inhibition of interleukin-6 (IL-6) stimulated STAT3 phosphorylation. An Alexa Fluor 647 conjugated anti-pSTAT3 antibody (pY705, Clone 4/P, BD Biosciences) was used to detect STAT3 phosphorylation.

[2] = system: IL-13 induced STAT6 phosphorylation in BEAS-2B human lung epithelial cells; assay: Cellular JAKI potency assay (AlphaScreen, BEAS-2B); assay type: cell-based; conditions: BEAS-2B cells
Protocol: The AlphaScreen JAKI cellular potency assay was carried out by measuring interleukin-13 (IL-13, R&D Systems) induced STAT6 phosphorylation in BEAS-2B human lung epithelial cells (ATCC). The anti-STAT6 antibody (Cell Signaling Technologies) was conjugated to AlphaScreen acceptor beads (Perkin Elmer), while the anti-pSTAT6 (pTyr641) antibody (Cell Signaling Technologies) was biotinylated using EZ-Link Sulfo-NHS-Biotin (Thermo Scientific).
BEAS-2B cells were grown at 37° C. in a 5% CO2 humidified incubator in 50% DMEM/50% F-12 medium (Life Technologies) supplemented with 10% FBS (Hyclone), 100 U/mL penicillin, 100 μg/mL streptomycin (Life Technologies), and 2 mM GlutaMAX (Life Technologies). On day 1 of the assay, cells were seeded at a 7,500 cells/well density in white poly-D-lysine-coated 384-well plates (Corning) with 25 μL medium, and were allowed to adhere overnight in the incubator. On day 2 of the assay, the medium was removed and replaced with 12 μL of assay buffer (Hank's Balanced Salt Solution/HBSS, 25 mM HEPES, and 1 mg/ml bovine serum albumin/BSA) containing dose-responses of test compounds. Compounds were serially diluted in DMSO and then diluted another 1000-fold in media to bring the final DMSO concentration to 0.1%. Cells were incubated with test compounds at 37° C. for 1 h, and followed by the addition of 12 μl of pre-warmed IL-13 (80 ng/mL in assay buffer) for stimulation. After incubating at 37° C. for 30 min, the assay buffer (containing compound and IL-13) was removed, and 10 μL of cell lysis buffer (25 mM HEPES, 0.1% SDS, 1% NP-40, 5 mM MgCl2, 1.3 mM EDTA, 1 mM EGTA, and supplement with Complete Ultra mini protease inhibitors and PhosSTOP from Roche Diagnostics). The plates were shaken at ambient temperature for 30 min before the addition of detection reagents. A mixture of biotin-anti-pSTAT6 and anti-STAT6 conjugated acceptor beads was added first and incubated at ambient temperature for 2 h, followed by the addition of streptavidin conjugated donor beads (Perkin Elmer). After a minimum of 2 h incubation, the assay plates were read on the EnVision plate reader. AlphaScreen luminescence signals were recorded and utilized to calculate the percent inhibition values based on DMSO and background controls.
For dose-response analysis, percent inhibition data were plotted vs. compound concentrations, and IC50 values were determined from a 4-parameter robust fit model with the Prism software. Results may also be expressed as the negative logarithm of the IC50 value, pIC50.
Test compounds having a lower IC50 value or higher pIC50 value in this assay show greater inhibition of IL-13 induced STAT6 phosphorylation.

[3] = system: IL-2/anti-CD3 stimulated IFNγ in human PBMCs; assay: Inhibition of IL-2/anti-CD3 stimulated IFNγ in human PBMCs; assay type: cell-based; conditions: PBMC, read-out: pIC50 inhibition of IL-2/anti-CD3 stimulated IFNγ (converted)
Protocol: The potency of the test compound for inhibition of interleukin-2 (IL-2)/anti-CD3 stimulated interferon gamma (IFNγ) was measured in human peripheral blood mononuclear cells (PBMCs) isolated from human whole blood (Stanford Blood Center). Because IL-2 signals through JAK, this assay provides a measure of JAK cellular potency.
(1) Human peripheral blood mononuclear cells (PBMC) were isolated from human whole blood of healthy donors using a ficoll gradient. Cells were cultured in a 37° C., 5% CO2 humidified incubator in RPMI (Life Technologies) supplemented with 10% Heat Inactivated Fetal Bovine Serum (FBS, Life Technologies), 2 mM Glutamax (Life Technologies), 25 mM HEPES (Life Technologies) and 1× Pen/Strep (Life Technologies). Cells were seeded at 200,000 cells/well in media (50 μL) and cultured for 1 h. Compounds were serially diluted in DMSO and then diluted another 500-fold (to a 2× final assay concentration) in media. Test compounds (100 μL/well) were added to cells, and incubated at 37° C., 5% CO2 for 1 h, followed by the addition of IL-2 (R&D Systems; final concentration 100 ng/mL) and anti-CD3 (BD Biosciences; final concentration 1 μg/mL) in pre-warmed assay media (50 μL) for 24 h.
(2) After cytokine stimulation, cells were centrifuged at 500 g for 5 min and supernatants removed and frozen at −80° C. To determine the inhibitory potency of the test compound in response to IL-2/anti-CD3, supernatant IFNγ concentrations were measured via ELISA (R&D Systems). IC50 values were determined from analysis of the inhibition curves of concentration of IFNγ vs compound concentration. Data are expressed as pIC50 (negative decadic logarithm IC50) values.

Tyk2 = Tyk2 (Homo sapiens (Human), UniProt P29597); assay: Biochemical JAK kinase assay (LanthaScreen), Tyk2
Protocol: A panel of four LanthaScreen JAK biochemical assays (JAK1, 2, 3 and Tyk2) were carried in a common kinase reaction buffer (50 mM HEPES, pH 7.5, 0.01% Brij-35, 10 mM MgCl2, and 1 mM EGTA). Recombinant GST-tagged JAK enzymes and a GFP-tagged STAT1 peptide substrate were obtained from Life Technologies.
Serially diluted compounds were pre-incubated with each of the four JAK enzymes and the substrate in white 384-well microplates (Corning) at ambient temperature for 1 h. ATP was subsequently added to initiate the kinase reactions in 10 μL total volume, with 1% DMSO. […] The plates were allowed to incubate at ambient temperature for 1 h before being read on the EnVision reader (Perkin Elmer).
For dose-response analysis, percent inhibition data were plotted vs. compound concentrations, and IC50 values were determined from a 4-parameter robust fit model with the Prism software (GraphPad Software). Results were expressed as pIC50 (negative logarithm of IC50) and subsequently converted to pKi (negative logarithm of dissociation constant, Ki) using the Cheng-Prusoff equation.

Chain of Tyk2 (P29597 whole entry): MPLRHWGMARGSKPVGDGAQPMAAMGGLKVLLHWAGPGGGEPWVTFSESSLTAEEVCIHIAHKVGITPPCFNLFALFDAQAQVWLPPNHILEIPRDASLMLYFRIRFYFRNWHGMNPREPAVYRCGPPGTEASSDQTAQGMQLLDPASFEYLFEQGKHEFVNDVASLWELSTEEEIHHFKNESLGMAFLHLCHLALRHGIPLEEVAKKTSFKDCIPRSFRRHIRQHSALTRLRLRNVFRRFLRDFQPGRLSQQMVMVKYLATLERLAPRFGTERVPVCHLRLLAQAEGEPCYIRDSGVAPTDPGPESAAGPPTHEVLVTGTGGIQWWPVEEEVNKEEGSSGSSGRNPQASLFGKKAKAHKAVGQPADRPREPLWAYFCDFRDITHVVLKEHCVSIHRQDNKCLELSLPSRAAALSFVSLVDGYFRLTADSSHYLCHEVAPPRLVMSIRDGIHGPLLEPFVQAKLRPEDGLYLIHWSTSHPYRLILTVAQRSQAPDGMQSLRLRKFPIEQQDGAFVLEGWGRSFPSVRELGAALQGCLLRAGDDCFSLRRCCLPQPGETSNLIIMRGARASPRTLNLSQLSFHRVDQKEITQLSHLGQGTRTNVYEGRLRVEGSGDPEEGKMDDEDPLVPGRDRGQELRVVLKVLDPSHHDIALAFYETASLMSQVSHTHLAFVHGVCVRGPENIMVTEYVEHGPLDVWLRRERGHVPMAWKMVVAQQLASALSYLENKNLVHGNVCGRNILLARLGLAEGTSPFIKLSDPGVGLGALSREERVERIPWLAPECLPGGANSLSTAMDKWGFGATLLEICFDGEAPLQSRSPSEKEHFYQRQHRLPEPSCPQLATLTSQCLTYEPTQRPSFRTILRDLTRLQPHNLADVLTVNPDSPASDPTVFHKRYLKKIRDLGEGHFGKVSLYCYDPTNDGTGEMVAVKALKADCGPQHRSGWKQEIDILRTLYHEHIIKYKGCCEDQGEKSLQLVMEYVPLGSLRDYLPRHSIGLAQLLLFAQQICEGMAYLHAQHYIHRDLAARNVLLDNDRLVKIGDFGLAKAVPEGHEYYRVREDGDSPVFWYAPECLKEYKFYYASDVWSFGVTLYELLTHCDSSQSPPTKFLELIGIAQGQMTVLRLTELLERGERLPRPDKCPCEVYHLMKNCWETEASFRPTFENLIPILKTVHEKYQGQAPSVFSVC

SMILES	inhibition of IL-6 signaling (in words) [1]	IC50 [1]	IC50 [2]	IC50 [3]	Ki (Tyk2)
CCCN1Cc2[nH]c(-c3n[nH]c4cc(-c5cc(F)c(O)cc5CC)ccc34)nc2C[C@H]1C(=O)N1C[C@@H]2C[C@H]1CN2C [Example 1, ((S)-2-(6-(2-ethyl-5-fluoro-4-hydroxyphenyl)-1H-indazol-3-yl)-5-propyl-4,5,6,7-tetrahydro-3H-imidazo[4,5-c]pyridin-6-yl)((1S,4S)-5-methyl-2,5-diazabicyclo-[2.2.1]heptan-2-yl)methanone]	inhibit IL-6 signaling	63.1 nM	5 nM	~126 nM	0.25 nM
CCc1cc(O)c(F)cc1-c1ccc2c(-c3nc4c([nH]3)CN(C(C)C)[C@H](C(=O)N3CC[C@H](N(C)C)C3)C4)n[nH]c2c1 [Example 3]	inhibit IL-6 signaling	39.8 nM	5.9 nM	~63.1 nM	0.4 nM
CCc1cc(O)c(F)cc1-c1ccc2c(-c3nc4c([nH]3)CN(CC)[C@@H](C(=O)N3CCN(C(C)(C)C)CC3)C4)n[nH]c2c1 [Example 1-37]	–	–	5.9 nM	~63.1 nM	1.26 nM
